{"source": "patent US10857214B2", "about": "“Compositions and methods for treating gluten intolerance and disorders arising therefrom” (Codexis, Inc., priority 2015, dated 2020)", "key": {"NOD DQ8 mice": {"test_system": "NOD DQ8 mice", "assay": "transgenic NOD/HLA-DQ8 mouse model of gliadin sensitivity", "settings": "gliadin codigested with pepsin 100:1 and fluid enzyme 264:1 or nepenthesin II 100:1; pepsin alone is positive control"}, "crude gliadin [1]": {"test_system": "crude gliadin", "assay": "SDS-PAGE and proteomic LC-MS/MS analysis of crude gliadin digests", "format": "biochemical, Triticum aestivum", "experimental": "Digestions at pH 2.5 and 37° C., for 90 min. All concentrations in μM. M: Molecular weight markers, and gliadin: total crude gliadin in the absence of protease. […] Peptide data from LC-MS/MS runs, with intensities obtained using Protein Deconvolution 1.0. […] A stock gliadin slurry of 20-50 mg/ml was prepared in acidic solution (100 mM glycine HCl, pH 2.5) and briefly sonicated to further break up large particulates and promote suspension. Digestions of 10 mg/mL gliadin slurries were initiated by addition of enzyme (pepsin, fluid enzymes or both) and held at 37° C. with gentle rotation. Digest progress was monitored by gravimetric analysis, optical transmission, SDS-PAGE and mass spectrometry. For gravimetric analysis, digests were quenched by boiling and treated with TCA/chloroform, followed by centrifugation to recover undigested or poorly digested protein. For monitoring with optical transmission, digestion reactions were conducted in 96-well plate with ≥3 replicates of each reaction condition, and turbidity monitored at 595 nm at 37° C. every 2 minutes, for 90 minutes (SpectraMax plate reader, Molecular Devices). The plate was shaken at medium speed briefly between measurements. The digests were quenched after 90 min reaction by boiling for 10 minutes (confirmed to have no impact on digestion profile, a posteriori). An aliquot of the reaction mixture was analyzed on an 8% SDS-PAGE gel. The remaining amount was centrifuged and the supernatant was analyzed by mass spectrometry. Supernatant was analyzed by data-dependent LC-MS/MS, in two 1-hour reversed phase gradient runs, configured for top-10 ion selection using CID in a high/low configuration. In one run, ion selection was restricted to 2+ and higher charge states. In the other run, ion selection was applied to 1+ charge states only. Data from both runs were combined and searched against all UniprotKB/Swiss-Prot entries for gliadin and glutenin from Triticum aestivum (25 proteins), using Mascot v2.3, configured for non-specific digestions and filtered for peptide hits with p<0.05. For estimation of peptide size distribution, all LC-MS spectra were combined and deconvoluted in Protein Deconvolution v1.0, with appropriate settings. For label-free quantitative analysis using the subset of the digest identified in the database search, the hit list was combined with the raw data in Mass Spec Studio and used to generate a set of peptide ion chromatograms, integrated over all isotopes to determine a weight-average intensity for each peptide sequence identified."}, "33mer from α-gliadin": {"test_system": "33mer from α-gliadin", "assay": "digestion of 33mer peptide by fluid fractions, MALDI-TOF", "format": "biochemical", "experimental": "Left: Silver-stain SDS-PAGE of fraction 1 containing nepenthesin, and MALDI spectrum of 33mer peptide processed with fraction 1. Right: Silver-stain SDS-PAGE of fraction 2 containing an unknown enzyme, and MALDI spectrum of 33mer peptides processed with fraction 2. MALDI of undigested 33mer in red, digested 33mer in black.\nTwo proteolytic components were isolated. Activity was retested against a 33mer from α-gliadin using MALDI-TOF. Fractions were also analyzed for protein content using MALDI-TOF (sinapinic acid as matrix), highlighting a single peak at 29 kDa. Fractions enriched in non-specific cleavage properties were further purified using gel filtration and retested for purity and for activity against 33mer.\nFluid protein concentrate was exchanged into 50 mM glycine and subjected to column chromatofocusing with fractionation. Fractions were analyzed for activity using MALDI-TOF (Sciex 5800 TOF/TOF, α-cyano-4-hydroxycinnamic acid as matrix). To test for activity, protein substrates were incubated with aliquots of column fractions at room temperature for 20 minutes and the digests analyzed by MALDI-TOF. Fractions enriched in proline cleavage were manually purified by reversed phase chromatography on Protein MacroTraps (Optimize Technologies). Enzyme was eluted and confirmed active against protein substrates."}, "[2]": {"test_system": "crude gliadin digests treated with human transglutaminase-2", "assay": "TG2-induced deamidation of gliadin digestion products", "format": "biochemical", "settings": "0.1 mg/mL human transglutaminase-2, pH 7.5, 37° C., 90 minutes", "from_the_text": "Fractional deamidation quantified for all peptides from ion chromatogram intensities; data presented as a ratio, where the antigenic peptide deamidation is normalized to the non-antigenic peptide deamidation at the indicated protease concentration. Antigenic regions defined using the DQ2 criteria, inset table.\nWhether enhanced digestion profiles would impact deamidation in antigenic regions was investigated. The recognition of immunodominant peptides by T cells is amplified when these peptides are deamidated in their core binding region by tissue transglutaminase 2 (TG2), particularly at position P4 or P6 in HLA DQ2 associated celiac disease. […] Crude gliadin digests were analyzed for the conversion of non-deamidated peptides to deamidated forms, and sorted all the peptides using a previously published algorithm for the identification of DQ2 binding motifs.\nSupernatants from crude gliadin digests were treated with 0.1 mg/mL human transglutaminase-2 (R&D Systems, Cat. 4376-TG-050) in 100 mM Tris-HCl pH 7.5, 2 mM CaCl2 at 37° C. for 90 minutes, and quenched at 95° C. for 15 minutes, following a published protocol. Treated digests were analyzed by data-dependent LC-MS/MS as described above, allowing for variable N and Q deamidation in database searches. […]"}, "crude gliadin [3]": {"test_system": "crude gliadin", "assay": "crude gliadin slurry clarification (gravimetric analysis, turbidity at 595 nm)", "format": "biochemical, wheat", "settings": "10 g/L crude gliadin slurry, pH 2.5, 37° C.; enzyme alone", "experimental": "Inset: temporal profiling of slurry (left to right: 0, 30, 60, 90 min) using the protein-enriched fluid extract. […] Turbidity of the digested gliadin was monitored as absorbance at 595 nm ([…]). Black lines represent the turbidity of the gliadin slurry in the absence of protease. Measurement precision was <3% RSD (n=3). […] Data taken from FIGS. 8A-8C. Values reported as milligrams of gliadin per micromolar enzyme concentration per minute digestion time. […] Digest progress was monitored by gravimetric analysis, optical transmission, SDS-PAGE and mass spectrometry. […] For monitoring with optical transmission, digestion reactions were conducted in 96-well plate with ≥3 replicates of each reaction condition, and turbidity monitored at 595 nm at 37° C. every 2 minutes, for 90 minutes (SpectraMax plate reader, Molecular Devices). […] An aliquot of the reaction mixture was analyzed on an 8% SDS-PAGE gel. The remaining amount was centrifuged and the supernatant was analyzed by mass spectrometry."}, "α-gliadin peptide 33mer": {"test_system": "α-gliadin peptide 33mer", "assay": "digestion profile of α-gliadin peptide 33mer under dilute conditions, LC-MS", "format": "biochemical", "settings": "equivalent digestion conditions at optimum pH (2 for pepsin, 7 for MX)", "from_the_text": "Normalized relative abundance measured from LC-MS ion chromatograms, using caffeine as internal standard. Figure discloses SEQ ID NOS 88, 28, and 89-91, respectively, in order of appearance.\nUsing the pepsin-resistant 33mer, the evolution of peptide products was monitored under dilute conditions."}}}
{"substance": "pepsin: gastric enzyme (EC 3.4.23.1) used as control protease", "values": [{"measurement": "small intestinal CD3+ intraepithelial lymphocyte (IEL) counts", "setting": "NOD DQ8 mice", "result": "significant increases"}, {"measurement": "digestion of total protein of crude gliadin by SDS-PAGE", "setting": "crude gliadin [1]; 10 mg/ml gliadin, pH 2.5, 37° C., 90 min", "result": "could not be achieved"}, {"measurement": "detected digest product having a molecular weight greater than 4000 Da", "setting": "crude gliadin [1]; 10 mg/ml gliadin, pH 2.5, 37° C., 90 min, high concentrations of pepsin", "result": 25, "unit": "wt %"}, {"measurement": "average peptide length, label-free, all peptide signals", "setting": "crude gliadin [1]; 10 mg/ml gliadin, pH 2.5, 37° C., 90 min, pepsin 5 μM, fluid extract 0.23 μM", "result": 19.2, "unit": "residues"}, {"measurement": "weighted average peptide length, identified peptides", "setting": "crude gliadin [1]; pepsin 5 μM, fluid protease 0.46 μM, co-digestion using these two concentrations", "result": 16.9, "unit": "residues"}, {"measurement": "digestion of 33mer peptide derived from α-gliadin", "setting": "33mer from α-gliadin", "result": "highly resistant to digestion"}, {"measurement": "peptide conversion (deamidation) in antigenic regions compared to non-antigenic regions", "setting": "[2]", "result": "over 5.5 times"}, {"measurement": "maximum clarification rate", "setting": "crude gliadin [3]", "result": 0.3, "unit": "mg/µM/min"}, {"measurement": "hydrolysis of 33mer peptide", "setting": "α-gliadin peptide 33mer", "result": "Neither pepsin nor a bacterial prolyl endoprotease from Myxococcus xanthus (MX) were able to hydrolyse"}]}
